Data taken from patent US20240325378A1, “PERGOLIDE TREATMENT OF OCULAR CHEMICAL INJURY” (University of Oregon, priority 2023, published 2024).

B1: NGF: Recombinant mouse NGF (R&D Systems) dissolved in 1× PBS, 100 μg/ml eye drops; positive control (protein, UniProt P01139 122-241, looked up)
Beta-nerve growth factor: SSTHPVFHMGEFSVCDSVSVWVGDKTTATDIKGKEVTVLAEVNINNSVFRQYFFETKCRASNPVESGCRGIDSKHWNSYCTTTHTFVKALTTDEKQAAWRFIRIDTACVCVLSRKATRRG

Experiments:
[1] = tested on: C57BL/6J mice with alkali corneal injury; assay: Wiping test (ocular pain behavior) after corneal alkali injury; format: in vivo, mouse; settings: females; for wiping (eye wipes, week minus baseline): week 2 post-injury, heightened vs week 1
Protocol: Seventy (35 male, 35 female) C57BL/6J mice (The Jackson Laboratory, Maine, US) were utilized (FIG. 1A). Mice were kept in a 12 hour light/12 hour dark cycle in groups of 5 with food and water ad libitum. Differences between males and females were assessed.
(§1) Mice were separated into 7 treatment groups with 10 mice per group (5 male, 5 female); high dose pergolide (600 μg/ml), medium dose pergolide (300 μg/ml), low dose pergolide (50 μg/ml), vehicle (solution only), NGF (100 μg/ml), naïve (injury and no treatment), and normal (no injury and no treatment). Preparation of pergolide and vehicle groups were done with Marinosolv® (Marinomed, Hovengasse, Korneuburg, AT) as described in (Siegl 2019 and Zhang 2020). Recombinant mouse NGF (R&D Systems, Minneapolis, MN, US) was prepared by dissolution in 1× phosphate-buffered saline (PBS). Both solutions were stored at 4 C according to the manufacturer's guidelines.
(§2) Mice were confirmed to have normal corneas prior to starting the study. Alkali corneal injury was done on one eye of each mouse for all groups excluding the normal group, in accordance with an established mouse model (Cho J 2019). Alkali-based injury was chosen as it is one of the most common chemical injuries to the eye (Dua 2020). […] A 2 mm diameter filter paper disc was soaked in sodium hydroxide (0.75 M) then applied centrally on the cornea for 10 seconds. The disc was then removed and the ocular surface immediately irrigated with 10 ml of balanced sodium salts. The corneal surface was then lightly rubbed with the smooth side of forceps and irrigated in the same manner. None of the mice had eyelid or conjunctiva involvement of the injury. Erythromycin ointment (Perrigo, Dublin, IE) was then applied to the exterior of both eyes. Mice were placed on a water heating pad, monitored until fully awake, then returned to their cage.
All groups except the no treatment groups received their respective eye drops (10 μl per eye drop) three times daily (5 out of 7 days each week) in the injured eye for 3 weeks following injury. Mice were held for 10 seconds with the eye drop on their eye before being returned to their cage. Mice were sacrificed by cervical dislocation after week 3.
Wiping test was chosen to assess ocular pain behavior and was done once weekly (at the same time), in accordance with previously established protocols (N=10; 5 male, 5 female) (Tashiro et al. 2010, Cho J et al. 2019). Testing was performed in a clear open-top cylinder surrounded by 2 mirrors and a video recorder in front of the cylinder. Mice were habituated to the cylinder prior to the start of the study. The test consisted of applying 10 μl of sodium chloride (2 M) to the surface of the study cornea for 10 seconds, blotting excess away, then recording the mouse in the cylinder for 30 seconds. […] A different pipette tip was used for each mouse. Sudden movements and loud noises were avoided during testing so as to not distract the subjects. An eye wipe was defined as a purposeful wipe by the ipsilateral forelimb across the eye or resulting in eye closure. Cage changes were not done within 3 days of each test, and when cage changes occurred it happened for each group simultaneously. Eye wiping was assessed at baseline (3 days prior to injury) and on post-injury weeks 1, 2, and 3.

[2] = tested on: C57BL/6J mice with alkali corneal injury; assay: Corneal haze grading (Roper-Hall classification) after corneal alkali injury; format: in vivo, mouse; settings: 3 weeks post injury; medium dose 300 μg/ml; grade 0-4; naïve group 3.3±0.8
Protocol: as §1
as §2, with “The corneal surface was then lightly rubbed with the smooth side of forceps and irrigated in the same manner. None of the mice had eyelid or conjunctiva involvement of the injury. Erythromycin ointment (Perrigo, Dublin, IE) was then applied to the exterior of both eyes.” left out, “cage. […]” for “cage.”

[3] = tested on: C57BL/6J mice with alkali corneal injury; assay: Central corneal nerve density (β-tubulin III stained flat-mounts); format: in vivo, mouse; settings: 3 weeks post injury; low dose 50 μg/ml; normal control 0.43±0.05
Protocol: as §1
Mice were confirmed to have normal corneas prior to starting the study. Alkali corneal injury was done on one eye of each mouse for all groups excluding the normal group, in accordance with an established mouse model (Cho J 2019). […] Mice were placed on a water heating pad, monitored until fully awake, then returned to their cage. […]
(§3) Flat-mounts of mouse corneas were prepared and corneal nerve density was analyzed as previously described (N=6; 3 male, 3 female) (Zhang 2020) (FIG. 3A). […]
(§4) EVOS fluorescence microscope (Life Technologies, Carlsbad, CA, US) was used to create reconstructed whole-mount images and take images at the basal epithelial level in the central area of the injury. […]

[4] = tested on: C57BL/6J mice with alkali corneal injury; assay: Limbal nerve density (β-tubulin III stained flat-mounts); format: in vivo, mouse; settings: 3 weeks post injury, normal control 0.37±0.09
Protocol: as §1
as §2, with “cage. […]” for “cage.”
as §3, §4

C57BL/6J mice = assay: Histopathology of heart, retina, liver and kidney after topical treatment; format: in vivo, mouse; settings: high, medium, and low dose topical eye drops for 3 weeks
Protocol: (§5) Change in mouse weight was compared from baseline to 3 weeks post-injury, and weight in the pergolide groups was compared to the non-pergolide groups (N=10; 5 male, 5 female). Following euthanasia, the heart and eyes were removed from the high dose pergolide and vehicle groups and histopathology was assessed using previously described protocols.
In brief, after excision, hearts, livers, and kidneys were fixed in formalin for 24 hours then embedded in paraffin and cut in the coronal and transverse planes (N=4; 2 male, 2 female) (Droogmans 2007 & 2009). Eyes were fixed in Davidson's solution for 24 hours then placed in 70% ethanol and processed prior then embedded in paraffin and cut in the sagittal plane (N=4; 2 male, 2 female) (Chidlow 2011). Hematoxylin and eosin were used to stain the slides (Cardiff 2014), then the EVOS fluorescence microscope was used to capture images.

[5] = Change in mouse weight, baseline to 3 weeks post-injury; format: in vivo; settings: medium dose 300 μg/ml group
Protocol: as §5

[6] = medium dose 300 μg/ml eye drops

Molecule | wiping (eye wipes, week minus baseline) ([1]; high dose 600 μg/ml eye drops) [wipes] | wiping (eye wipes, week minus baseline) [1, 6] [wipes] | wiping at week 3 compared to week 2 ([1]; high dose 600 μg/ml eye drops) | wiping at week 3 compared to week 2 [1, 6] | corneal haze grade [2] | central corneal nerve density (proportion of area with β-tubulin III staining) [3] | limbal nerve density ([4]; high dose 600 μg/ml) | limbal nerve density ([4]; medium dose 300 μg/ml) | retina, liver and kidney morphology (C57BL/6J mice) | heart histopathology (C57BL/6J mice; compared to the vehicle group) | minor weight loss of one mouse, of initial body weight [5] | wiping (eye wipes, week minus baseline) ([1]; 100 μg/ml eye drops) [wipes] | wiping at week 3 compared to week 2 ([1]; 100 μg/ml eye drops) | limbal nerve density ([4]; 100 μg/ml)
CCCN1C[C@H](CSC)C[C@@H]2c3cccc4[nH]cc(c34)C[C@H]21 [pergolide] | 7.0±5.8 | 6.2±5.5 | decreased | decreased | 2.2±1.1 | 0.10±0.03 | 0.35±0.11 | 0.34±0.08 | did not show abnormal morphology | did not show presence of valvular fibrosis, glycosaminoglycans deposits/myxoid changes, chondroid metaplasia, or other abnormal pathology | about 1% | – | – | –
B1 | – | – | – | – | – | – | – | – | – | – | – | 4.6±5.1 | decreased | 0.36±0.08
